Drawing on ChEMBL document CHEMBL1158086, “Phenolic marine natural products as aldose reductase inhibitors” (J Nat Prod, 2006), this text covers IC50 for 13 compounds.

SMILES strings stand for the structures.

One may read the IC50 as the concentration that gives 50% inhibition.

This experiment can be described thus: Inhibition of human recombinant ALR2.
Turning to `O=C(c1ccc(O)cc1)c1cncc(-c2ccc(O)cc2)n1`, the IC50 turned out to be 41.4 µM.
With `O=C1O/C(=C\c2ccc(O)c(Br)c2)C(c2ccc(O)cc2)=C1Cl` the figure was 46.2 µM; with `O=C1O/C(=C\c2cc(Br)c(O)c(Br)c2)C(c2ccc(O)cc2)=C1Cl`, 0.8 µM.
Take `O=C1O/C(=C\c2cc(Br)c(O)c(Br)c2)C(c2ccc(O)c(Br)c2)=C1Cl`: the IC50 stood at 12.7 µM.
With `O=C(c1ccc(O)cc1)c1nc(-c2ccc(O)cc2)c[nH]1` the figure was 21.4 µM.
With `O=C(c1ccc(O)cc1)c1ncc(-c2ccc(O)cc2)nc1C(=O)c1ccc(O)cc1` the figure was 19.4 µM; with `O=C1C=C(c2ccc(O)cc2)/C(=C/c2cc(Br)c(O)c(Br)c2)O1`, > 57 µM.
With `O=C1O/C(=C\c2ccc(O)c(Br)c2)C(c2ccc(O)c(Br)c2)=C1Cl` the figure was 16.9 µM; with `O=C1O/C(=C\c2cc(Br)c(O)c(Br)c2)C(c2cc(Br)c(O)c(Br)c2)=C1Cl`, 18.7 µM; with `O=c1oc(-c2ccc(O)cc2)cn2cc(-c3ccc(O)c(I)c3)c(-c3ccc(O)cc3)c12` [LUKIANOL B], 0.6 µM.
Turning to `O=C1C=C(c2cc(Br)c(O)c(Br)c2)/C(=C/c2cc(Br)c(O)c(Br)c2)O1` [RUBROLIDE A], the IC50 came to 19.8 µM.
On to `O=C1C=C(c2ccc(O)c(Br)c2)/C(=C/c2cc(Br)c(O)c(Br)c2)O1` [RUBROLIDE J], for which the IC50 is 48.1 µM.
With `O=C1NC(=O)[C@@]2(CCOc3ccc(F)cc32)N1` [SORBINIL] the figure was 3.6 µM.
